Data published in patent US6121278A, “Di-n-heterocyclic compounds, methods, and compositions for inhibiting parp activity” (Guilford Pharmaceuticals, Inc., priority 1998, dated 2000).
“Also recorded” adds a separate entry of the source.

Experiments:
septic shock mortality = assay: Septic shock assay (LPS plus galactosamine); type: in vivo, C57/BL male mice; details: 60, 20, 6 and 2 mg/kg daily IP for three days; LPS plus galactosamine challenge
Method: Groups of 10 C57/BL male mice weighing 18 to 20 g were administered a test compound, 1-carboxynaphthalene-1-carboxamide at the doses of 60, 20, 6 and 2 mg/kg, daily, by intraperitoneal (IP) injection for three consecutive days. Each animal was first challenged with lipopolysaccharide (LPS, from E. coli, LD100 of […] IV) plus galactosamine (20 mg/animal IV). The first dose of test compound in a suitable vehicle was given 30 minutes after challenge, and the second and third doses were given 24 hours later on day 2 and day 3 respectively, with only the surviving animals receiving the second or third dose of the test compound. Mortality was recorded every 12 hours after challenge for the three-day testing period. 1-Carboxy-naphthalene-1-carboxamide provided a protection against mortality from septic shock of about 40%.

[1] = tested on: heart ischemia and reperfusion; details: cited from earlier work
[2] = tested on: human fibroblast cells (W138 or BJ); assay: Extending proliferative capacity and lifespan of cells; type: cell-based
Method: At the time of subdivision, the media is aspirated, and the cells rinsed with phosphate buffer saline (PBS) and then trypsinized. The cells are counted with a Coulter counter and plated at a density of 10^5 cells per cm^2 in 6-well tissue culture plates in DMEM/199 medium supplemented with 10% bovine calf serum and varying amounts (0.10 μM, and 1 mM: from a 100× stock solution in DMEM/M199 medium) of a PARP inhibitor of Formula I as disclosed herein. This process is repeated every 7 days until the cell appear to stop dividing. The untreated (control) cells reach senescence and stop dividing after about 40 days in culture. […] The cells treated with 1 mM 3-AB will still divide after 60 days in culture.

colitis = details: rat, in vivo; cited from earlier work
[3] = tested on: cell viability, glucose metabolism, and DNA synthesis; details: cited from earlier work
tumor cells = details: cited from earlier work
PARP = details: cited from earlier work
focal cerebral ischemia = assay: Focal cerebral ischemia (distal MCA cauterization with bilateral temporary CCA occlusion), infarct; type: in vivo, male Long-Evans rats; details: for cross-sectional infarct area curve (in words): FIG. 1
Method: (§1) Focal cerebral ischemia was produced by cauterization of the right distal MCA (middle cerebral artery) with bilateral temporary common carotid artery occlusion in male Long-Evans rats for 90 minutes. All procedures performed on the animals were approved by the University Institutional Animal Care and Use Committee of the University of Pennsylvania. A total of 42 rats (weights: 230-340 g) obtained from Charles River were used in this study. The animals fasted overnight with free access to water prior to the surgical procedure.
(§2) Two hours prior to MCA occlusion, varying amounts (control, n=14; 5 mg/kg, n=7; 10 mg/kg, n=7; 20 mg/kg, n=7; and 40 mg/kg, n=7) of the compound, 3,4-dihydro-5-[4-(1-piperidinyl)-butoxy]-1(2H)-isoquinolinone ("DPQ") were dissolved in dimethyl sulfoxide (DMSO) using a sonicator. A volume of 1.28 ml/kg of the resulting solution was injected intraperitoneally into fourteen rats.
(§3) The rats were then anesthetized with halothane (4% for induction and 0.8%-1.2% for the surgical procedure) in a mixture of 70% nitrous oxide and 30% oxygen. The body temperature was monitored by a rectal probe and maintained at 37.5±0.5° C. with a heating blanket regulated by a homeothermic blanket control unit (Harvard Apparatus Limited, Kent, U.K.). A catheter (PE-50) was placed into the tail artery, and arterial pressure was continuously monitored and recorded on a Grass polygraph recorder (Model 7D, Grass Instruments, Quincy, Mass.). Samples for blood gas analysis (arterial pH, PaO2 and PaCO2) were also taken from the tail artery catheter and measured with a blood gas analyzer (ABL 30, Radiometer, Copenhagen, Denmark). Arterial blood samples were obtained 30 minutes after MCA occlusion.
The head of the animal was positioned in a stereotaxic frame, and a right parietal incision between the right lateral canthus and the external auditory meatus was made. Using a dental drill constantly cooled with saline, a 3 mm burr hole was prepared over the cortex supplied by the right MCA, 4 mm lateral to the sagittal suture and 5 mm caudal to the coronal suture. The dura mater and a thin inner bone layer were kept, care being taken to position the probe over a tissue area devoid of large blood vessels. The flow probe (tip diameter of 1 mm, fiber separation of 0.25 mm) was lowered to the bottom of the cranial burr hole using a micromanipulator. The probe was held stationary by a probe holder secured to the skull with dental cement. The microvascular blood flow in the right parietal cortex was continuously monitored with a laser Doppler flowmeter (FloLab, Moor, Devon, U.K., and Periflux 4001, Perimed, Stockholm, Sweden).
Focal cerebral ischemia was produced by cauterization of the distal portion of the right MCA with bilateral temporary common carotid artery (CCA) occlusion by the procedure of Chen et al., "A Model of Focal Ischemic Stroke in the Rat: Reproducible Extensive Cortical Infarction", Stroke 17:738-43 (1986) and/or Liu et al., "Polyethylene Glycol-conjugated Superoxide Dismutase and Catalase Reduce Ischemic Brain Injury", Am. J. Physiol. 256:H589-93 (1989), both of which are hereby incorporated by reference.
Specifically, bilateral CCA's were isolated, and loops made from polyethylene (PE-10) catheter were carefully passed around the CCA's for later remote occlusion. […]

[4] = Arterial blood gases, pH and MABP in focal cerebral ischemia rats; type: in vivo, male Long-Evans rats; details: for MABP Ischemia: during occlusion; for MABP Steady State: just prior to occlusion
Method: as §1, §2, §3
A "steady state" MABP was taken following completion of the surgical reparation, just prior to occlusion; an "ischemia" MABP was taken as the average MABP during occlusion.

[5] = target: T1, purified recombinant human PARP (Homo sapiens, UniProt P09874); assay: PARP enzyme assay, [3H]NAD incorporation; type: biochemical; details: 25° C., 15 minutes; PARP inhibition; read-out: Approximate IC50's
T1 construct: purchased Trevigen (Gaithersburg, Md.)
T1 sequence (P09874 whole entry): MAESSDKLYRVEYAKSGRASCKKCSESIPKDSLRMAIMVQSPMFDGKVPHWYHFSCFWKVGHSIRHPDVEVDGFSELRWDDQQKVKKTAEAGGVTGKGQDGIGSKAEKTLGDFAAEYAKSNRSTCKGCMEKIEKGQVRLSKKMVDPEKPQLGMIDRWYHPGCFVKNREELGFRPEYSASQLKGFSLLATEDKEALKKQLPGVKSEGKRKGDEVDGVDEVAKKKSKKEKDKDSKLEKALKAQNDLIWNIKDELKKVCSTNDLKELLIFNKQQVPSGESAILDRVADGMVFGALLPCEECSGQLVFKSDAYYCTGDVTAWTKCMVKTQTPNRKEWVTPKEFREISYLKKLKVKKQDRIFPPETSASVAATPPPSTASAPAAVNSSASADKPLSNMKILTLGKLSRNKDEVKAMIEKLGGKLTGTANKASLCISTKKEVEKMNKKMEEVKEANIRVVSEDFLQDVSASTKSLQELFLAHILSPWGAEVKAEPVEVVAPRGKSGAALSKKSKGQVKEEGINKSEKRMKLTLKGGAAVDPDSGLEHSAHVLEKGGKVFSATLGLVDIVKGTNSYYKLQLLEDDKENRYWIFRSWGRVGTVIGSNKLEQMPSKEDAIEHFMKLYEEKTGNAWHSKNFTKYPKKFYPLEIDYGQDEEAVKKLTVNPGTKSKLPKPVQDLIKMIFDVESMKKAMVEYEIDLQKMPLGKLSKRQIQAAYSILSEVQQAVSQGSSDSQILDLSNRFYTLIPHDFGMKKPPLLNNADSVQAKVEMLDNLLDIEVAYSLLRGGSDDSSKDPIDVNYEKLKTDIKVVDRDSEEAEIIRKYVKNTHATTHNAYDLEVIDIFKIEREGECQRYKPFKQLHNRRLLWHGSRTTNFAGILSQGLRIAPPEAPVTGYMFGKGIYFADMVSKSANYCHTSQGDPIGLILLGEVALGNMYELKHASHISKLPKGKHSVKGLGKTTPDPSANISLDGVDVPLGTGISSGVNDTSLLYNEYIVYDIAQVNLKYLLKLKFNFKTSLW
Method: The reaction was initiated by incubating the mixture at 25° C. After 15 minutes' incubation, the reaction was terminated by adding 500 microliters of ice cold 20% (w/v) trichloroacetic acid. The precipitate formed was transferred onto a glass fiber filter (Packard Unifilter-GF/B) and washed three times with ethanol. After the filter was dried, the radioactivity was determined by scintillation counting.

[6] = dose of acetanilid given to a person; cited from earlier work
endotoxic shock = details: in vivo; cited from earlier work

1-carboxynaphthalene-1-carboxamide
protection against mortality from septic shock (septic shock mortality): about 40%

Oc1cccc2c(O)nccc12 [1,5-dihydroxyisoquinoline]
reduction in infarct size ([1]; 1 mg/kg single injection): 38-48%

NC(=O)c1cccc(N)c1 [3-aminobenzamide]
effect on lifespan of cells (in words) ([2]; 10 μM): little or no effect
effect on lifespan of cells (in words) ([2]; 100 μM): appears lengthen the lifespan of the cells
effect on lifespan and proliferative capacity of cells (in words) ([2]; 1 mM): dramatically increases the lifespan and proliferative capacity of the cells
time in culture after which cells still divide ([2]; 1 mM, untreated cells stop after about 40 days): > 60 days
reduction in infarct size in the heart ([1]; 10 mg/kg single injection, one minute before occlusion or reperfusion): 32-42%
colitis outcome (in words) (colitis): reduced the inflammatory response and restored the morphology and the energetic status of the distal colon
effect on cell viability, glucose metabolism, and DNA synthesis (in words) [3]: shown to affect cell viability, glucose metabolism, and DNA synthesis

O=c1[nH]c2ccccc2c2ccccc12 [6(5H)-Phenanthridinone]
proliferation of tumor cells (in words) (tumor cells): reduced proliferation of tumor cells
synergy with an alkylating drug (in words) (tumor cells; co-treatment with an alkylating drug): a marked synergistic effect when tumor cells are co-treated with an alkylating drug
PARP activity (in words) (PARP): inhibition of PARP activity

O=C1NCCc2c(OCCCCN3CCCCC3)cccc21 [DPQ, 3,4-dihydro-5-[4-(1-piperidinyl)-butoxy]-1(2H)-isoquinolinone]
cross-sectional infarct area curve (in words) (focal cerebral ischemia; 5 mg/kg i.p.): fell approximately halfway between the control and the 10 mg/kg curves
cross-sectional infarct area curve (in words) (focal cerebral ischemia; 20 mg/kg i.p.): fell approximately halfway between the control and the 10 mg/kg curves
infarct volume versus control (in words) (focal cerebral ischemia; 40 mg/kg i.p.): no significant difference between the control and the 40 mg/kg-treated group; also recorded: less neuroprotective
cross-sectional infarct area curve (in words) (focal cerebral ischemia; 40 mg/kg i.p.): close to the control
reduction in infarct volume overall (in words) (focal cerebral ischemia; overall, in vivo administration): substantial reduction in infarct volume
PaCO2 ([4]; 5 mg/kg-treated group (n = 7)): 38.0 ± 2.8 mm Hg
PaO2 ([4]; 5 mg/kg-treated group (n = 7)): 126 ± 20 mm Hg
arterial pH ([4]; 5 mg/kg-treated group (n = 7)): 7.36 ± 0.02
MABP Ischemia ([4]; 5 mg/kg-treated group (n = 7), ** p < 0.01 vs steady state): 91 mm Hg
MABP Steady State ([4]; 5 mg/kg-treated group (n = 7)): 78 ± 5 mm Hg
PaCO2 ([4]; 10 mg/kg-treated group (n = 7)): 39.3 ± 5.2 mm Hg
PaO2 ([4]; 10 mg/kg-treated group (n = 7)): 125 ± 16 mm Hg
arterial pH ([4]; 10 mg/kg-treated group (n = 7)): 7.34 ± 0.03
MABP Ischemia ([4]; 10 mg/kg-treated group (n = 7), * p < 0.05 vs steady state): 90 mm Hg
MABP Steady State ([4]; 10 mg/kg-treated group (n = 7)): 80 ± 9 mm Hg
PaCO2 ([4]; 20 mg/kg-treated group (n = 7)): 41.3 ± 2.8 mm Hg
PaO2 ([4]; 20 mg/kg-treated group (n = 7)): 122 ± 14 mm Hg
arterial pH ([4]; 20 mg/kg-treated group (n = 7)): 7.35 ± 0.23
MABP Ischemia ([4]; 20 mg/kg-treated group (n = 7), ** p < 0.01 vs steady state): 91 mm Hg
MABP Steady State ([4]; 20 mg/kg-treated group (n = 7)): 79 ± 10 mm Hg
PaCO2 ([4]; 40 mg/kg-treated group (n = 7)): 39.5 ± 4.7 mm Hg
PaO2 ([4]; 40 mg/kg-treated group (n = 7)): 137 ± 17 mm Hg
arterial pH ([4]; 40 mg/kg-treated group (n = 7)): 7.33 ± 0.24
MABP Ischemia ([4]; 40 mg/kg-treated group (n = 7), * p < 0.05 vs steady state): 88 mm Hg
MABP Steady State ([4]; 40 mg/kg-treated group (n = 7)): 78 ± 4 mm Hg

Nc1ccc2c(c1)oc(=O)c1ccccc12 [PARP Inhibitor (line 8)]
IC50 [5]: ~4 µM

CC(=O)Nc1ccc(O)cc1 [acetaminophen, p-hydroxyacetanilid]
plasma component / peak (in words) [6]: In the second hour, as the acetanilid level falls, the metabolite acetaminophen concentration reaches a peak

CC(=O)Nc1ccccc1 [acetanilid, acetanilide]
plasma component / peak (in words) [6]: During the first hour, acetanilid is the principal plasma component

NC(=O)c1ccccc1 [benzamide]
effect on cell viability, glucose metabolism, and DNA synthesis (in words) [3]: shown to affect cell viability, glucose metabolism, and DNA synthesis

NC(=O)c1cccnc1 [nicotinamide]
vascular failure in endotoxic shock (in words) (endotoxic shock): protects against delayed, NO-mediated vascular failure in endotoxic shock
